For assay [1], the system named is A7r5. Put plainly: Inhibition of A7r5 mediated LDL oxidation (MDA). The settings on record: Rattus norvegicus; for inhibition at 100 µM: 10^-4 M; for inhibition at 10 µM: 10^-5 M; for inhibition at 1 µM: 10^-6 M. The class given is cell-based, rat. The protocol: A7r5 (ATCC CRL-1444, smooth muscles, thoracic aorta, BDIX rat) cells were cultured in 24 well plates, using the medium of DMEM (Dulbecco's modified Eagle's Medium) supplemented with 10% heat-inactivated FBS (fetal bovine serum) and 1% antibiotics. Confluent A7r5 from plates were washed with phosphate-buffered solution, and DMEM with 10% FBS and 1% antibiotics was added in a total volume of 0.5 ml/well. Cells (2 x 10^5 cells/ml) were preincubated without and with either test compounds (10^-6 - 10^-4 M) or Tocopherol (10^-6 - 10^-4 M) at 37 °C for 30 min. Then, A7r5 alone or A7r5 plus H2O2 (10^-7 M) were exposed to LDL (100 ug/ml) for 24 hr.
The inhibitory effect of the test compounds against the lipid peroxidation was evaluated by calculating MDA reduction rate of the test compounds compared with that of the control group same as the above example 5 (2).

The subject of assay [2] is diabetic rats. Put plainly: Nociceptive test (hot plate test) in diabetic rats. The class given is in vivo. Conditions: 50 °C hot plate. Here is the method: Effects on nociceptive responses of test compounds in rats were examined using hot plate. The same methods were applied for the induction of diabetes and treatment of test compound in rats. Rats were placed onto 50 °C hot plate, then latencies of nociceptive action such as licking were determined. The recovery (%) of nociceptive responses in diabetic rats was calculated according to the following mathematical […]. [Mathematical formula 5] Recovery(%) =(Response in treated group - Response in diabetic control)/(Response in normal control-Response in diabetic control)x100 [formula]
A general note: Hot-plate and tail-flick tests time the reaction to a heat stimulus.

The test system of assay [3] is diabetic rats. Put plainly: Effects on MNCV (motor nerve conduction velocity) in diabetic rats. The settings on record: 30 mg/Kg, orally once a day. The format is in vivo. The arrangement: MNCV (sec): unit not given here. The protocol:
Diabetes was induced with i.p. (intra peritoneum) injection of streptozocin (65 mg/Kg) in rats, then test compounds dissolved in 2 ml of media (physiological saline: ethanol: tween 80 = 8:1:1), were orally administered once a day. Rats were anesthetized with halothane, then the sciatic nerve was exposed to measure MNCV. The nerve was stimulated at two points. The first stimulus electrode was inserted at proximal end, and second stimulating electrode was inserted at the sciatic notch. The coaxial needle electrode was inserted into interdigital muscle, then the muscle action potential induced by two point stimulation. The conduction velocity was calculated by dividing the distance between two stimulus points by the latency difference. Lipoic acid (100 mg/Kg) was used in comparison with the compound of formula 1 in recovery of impaired MNCV in diabetic rats. The recovery (%) of MNCV was calculated according to the following mathematical formula 4. [Mathematical formula 4] Recovery(%) =(MNCV of treated group - MNCV of diabetic rats)/(MNCV of normal control-MNCV of diabetic rats)x100 [formula]

Assay [4] concerns Human LDL. Put plainly: Inhibition of copper-induced LDL oxidation (MDA, TBA method). The format is biochemical. Conditions: CuSO4 10 uM, 18 hr. Here is the method:
Human LDL (sigma) was dissolved in distilled water at a concentration of 1 mg/ml. LDL was dialyzed against three changes of phosphate-buffered solution before oxidation to remove EDTA (ethylenediamine tetraacetate) at 4 °C for 18 hr. EDTA-free LDL (100 ug LDL protein/ml) was incubated in EDTA-free phosphate-buffered solution at 37 °C for 18 hr in the presence of CuSO4 (10 uM) under pretreatment with the test compounds or tochopherol of which final concentrations were 10^-9, 10^-7, and 10^-5 M. Blank was incubated without CuSO^., and vehicle was used as a solvent group. Oxidation was stopped at 4 °C by addition of EDTA (200 uM).
Copper (Cu^+2) facilitates the oxidation of LDL to produce malondialdehyde (MDA), thus the lipid peroxidation was determined by MDA quantification same as the above example 5 (1). The MDA quantification was estimated by reacting samples with 2-thiobarbituric acid (TBA) and measuring the absorbance at 530 nm. 1,1,3,3-Tetramethoxy propane (Sigma) was used as a standard agent, and calculated the quantity of MDA as nmol of MDA equivalents per mg protein. The inhibitory effect of the test compounds against the lipid peroxidation was evaluated by calculating MDA reduction rate of the test compounds compared with that of the control group.

In assay [5] the test system is newborn rats. Nature of the assay: Protection against hypoxic brain injury in newborn rats (proton MRS). The format is in vivo. Conditions: 50mg/Kg intraperitoneally 1 hr before hypoxia; proton MRS 1 day after injury. The text has this:
Focal, hypoxic brain injury model in newborn rats are being most frequently used to study infant asphyxia, because whose maturity of brain is similar to that of human infant, and it is easy to get enough number of animals required for the determination of effects. It was reported that the lipid peak was increased in MRS (magnetic resonamce spectroscopy) by ischemic neuronal cell injury due to the destruction of cell membrane including blood-brain barrier [A. Bizzi et. al., Magnetic Resonance Imagin 14 581-592 (1996)], and also the concentration of lipid and apotosis are closely correlated to apotosis [Van der A. Toorn et al., Magnetic Resonamce in Medicine, 36 , 914-922 (1996)]. N-Acetylaspartae (NAA) and creatine (Cr) are markers of neuronal cells. Then it was confirmed that the value of lipid/NAA (N-acetylaspartae) and lipid/Cr (creatine) are correlated with the morphological change and severity of apoptosis on hypoxic brain damage.
New born rats (within 7 days, 10-15 g) were placed in hypoxic chamber for 2 hr to induce hypoxia, and test compounds were intraperitoneally injected before 1 hr of hypoxia. Proton MRS was obtained at 1 day after brain injury, then the value of lipid/NAA and lipid/Cr were determined.

Setting [6] is: A7r5 alone, LDL 100 ug/ml, 24 hr, read-out: % Inhibition LDL.
Where [7] appears, read: A7r5 plus H2O2 (10^-7 M), read-out: % Inhibition LDL + H2O2 (10^-7M).

SMILES strings stand for the structures. Like-named read-outs stand apart in the source and are kept apart here.

For orientation: inhibition means the share of the control response that was lost under treatment. The term % Inhibition denotes the percentage by which the read-out fell short of the control. Regarding `COC(OC)[C@@]1(C)Oc2ccc(N)cc2[C@@H](NC(=NC#N)NCc2ccccc2)[C@@H]1O` [Example 40, (2S, 3S, 4R)-N''-cyano-N-(6 - amino-3,4-dihydro-3-hydroxy-2-methyl-2-dimethoxymethyl-2H-benzopyran-4-yl)-N'-benzylguanidine], the figures for the inhibition at 100 µM in assay [1] (setting [6]) and in assay [1] (setting [7]) were 57.5% and 64.3%, respectively. The inhibition at 10 µM is 51.4% in assay [1] (setting [6]) and 62.5% in assay [1] (setting [7]). Besides, the results for the inhibition at 1 µM in assay [1] (setting [6]) and in assay [1] (setting [7]) were 40.9% and 49.7%, respectively. The “Nociceptive response” value in assay [2] (latency of licking) was 4.791 s. Besides, the “Recovery (%)” value in assay [2] (nociceptive responses) is reported as 106.5%; in assay [3] (MNCV, diabetic rats) it was 63.0%. For the same molecule, the “MNCV (sec)” value in assay [3] (streptozocin diabetic rats) is 47.756. Moreover, the “% Inhibition” value in assay [4] (10^-5 M) is 27.6%; in assay [4] (10^-7 M, 0.1 µM), 24.3%; in assay [4] (10^-9 M, 0.001 µM), 7.6%. For the same molecule, the Lipid/Cr in assay [5] came out at 2.33. This molecule came in with a Lipid/NAA in assay [5] of 2.51.

Source of the values: EP1228058B1, “BENZOPYRANYL GUANIDINE DERIVATIVES, PROCESS FOR PREPARATION THEREOF, AND PHARMACEUTICAL COMPOSITIONS CONTAINING THEM” (Dongbu Hannong Chemical Co., Ltd., priority 1999, dated 2001).
